# Experimental data: PubChem BioAssay (NCI)
# “And” between values parts separate entries of the source, which are not always exact repeats. Equal values may be shown once.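 Cells were grown in 96-well plates and exposed to each compound for 48 hours at five concentrations; endpoints were interpolated linearly between bracketing concentrations, or set to the highest concentration if not reached. TGI: total growth inhibition.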
# Key:
# Test in all cases: NCI tumour cell line growth inhibition, 48 h
# [1] = tested on: UACC-257 melanoma
# [2] = tested on: HOP-92 NSCLC
# [3] = tested on: MCF7 breast
# [4] = tested on: SN12C renal
# [5] = tested on: HCT-15 colon
# [6] = tested on: KM12 colon
# [7] = tested on: P388/ADR leukemia
# [8] = tested on: DLD-1 colon
# [9] = tested on: NCI-H460 lung
# [10] = tested on: HT29 colon
# [11] = tested on: A498 renal
# [12] = tested on: SN12K1 renal
# [13] = tested on: K-562 leukemia
# [14] = tested on: HOP-62 NSCLC
# [15] = tested on: OVCAR-4 ovarian
# [16] = tested on: M19-MEL melanoma
# [17] = tested on: SNB-19 CNS
# [18] = tested on: A549 NSCLC
# [19] = tested on: MOLT-4 leukemia
# [20] = tested on: LOX IMVI melanoma
# [21] = tested on: U251 CNS
# [22] = tested on: CAKI-1 renal
# [23] = tested on: NCI-H226 lung
# [24] = tested on: OVCAR-8 ovarian
# [25] = tested on: IGROV1 ovarian
# [26] = tested on: SF-539 CNS
# [27] = tested on: OVCAR-3 ovarian
# [28] = tested on: COLO 205 colon
# [29] = tested on: HCC-2998 colon
# [30] = tested on: P388 leukemia
# [31] = tested on: NCI-H23 lung
# [32] = tested on: DMS 114 small cell lung
# [33] = tested on: UACC-62 melanoma
# [34] = tested on: HCT-116 colon
# [35] = tested on: HOP-18 NSCLC
# [36] = tested on: OVCAR-5 ovarian
# [37] = tested on: HL-60(TB) leukemia
# [38] = tested on: SF-295 CNS
# [39] = tested on: SNB-78 CNS
# [40] = tested on: XF 498 CNS
# [41] = tested on: SNB-75 CNS
# [42] = tested on: NCI-H522 lung
# [43] = tested on: RXF 393 renal
# [44] = tested on: SW-620 colon
# [45] = tested on: UO-31 renal
# [46] = tested on: EKVX NSCLC
# [47] = tested on: RPMI-8226 leukemia
# [48] = tested on: SK-MEL-2 melanoma
# [49] = tested on: SK-OV-3 ovarian
# [50] = tested on: DMS 273 small cell lung
# [51] = tested on: SK-MEL-28 melanoma
# [52] = tested on: NCI/ADR-RES ovarian
# [53] = tested on: SF-268 CNS
# [54] = tested on: CCRF-CEM leukemia
# [55] = tested on: SK-MEL-5 melanoma
# [56] = tested on: KM20L2 colon
# [57] = tested on: SR leukemia
# [58] = tested on: RXF-631 renal
# [59] = tested on: M14 melanoma
# [60] = tested on: TK-10 renal
# [61] = tested on: 786-0 renal
# [62] = tested on: ACHN renal
# [63] = tested on: MALME-3M melanoma
# [64] = tested on: LXFL 529 NSCLC
compound,measurement,setting,value
COc1ccc(-c2nc3ccc([N+](=O)[O-])cc3c(=O)[nH]2)cc1,TGI,[1],> 100 µM
same,TGI,[2],45.8 µM
same,TGI,[3],> 100 µM
same,TGI,[4],> 100 µM
same,TGI,[5],> 100 µM
same,TGI,[6],> 100 µM
same,TGI,[7],> 100 µM
same,TGI,[8],> 100 µM
same,TGI,[9],> 100 µM
same,TGI,[10],> 100 µM
same,TGI,[11],> 100 µM
same,TGI,[12],> 86.5 µM
same,TGI,[13],> 100 µM
same,TGI,[14],> 67.7 µM
same,TGI,[15],33.4 µM
same,TGI,[16],> 100 µM
same,TGI,[17],55.3 µM
same,TGI,[18],> 100 µM
same,TGI,[19],> 100 µM
same,TGI,[20],> 100 µM
same,TGI,[21],> 64.3 µM
same,TGI,[22],> 86.7 µM
same,TGI,[23],59.1 µM
same,TGI,[24],> 72.2 µM
same,TGI,[25],71.5 µM
same,TGI,[26],29.7 µM
same,TGI,[27],64.3 µM
same,TGI,[28],> 100 µM
same,TGI,[29],> 100 µM
same,TGI,[30],> 100 µM
same,TGI,[31],> 86.8 µM
same,TGI,[32],> 100 µM
same,TGI,[33],> 100 µM
same,TGI,[34],> 79.4 µM
same,TGI,[35],> 100 µM
same,TGI,[36],> 100 µM
same,TGI,[37],> 100 µM
same,TGI,[38],> 63.3 µM
same,TGI,[39],71.8 µM
same,TGI,[40],46.3 µM
same,TGI,[41],31 µM
same,TGI,[42],90.5 µM
same,TGI,[43],> 75.6 µM
same,TGI,[44],> 100 µM
same,TGI,[45],> 100 µM
same,TGI,[46],> 100 µM
same,TGI,[47],> 100 µM
same,TGI,[48],> 100 µM
same,TGI,[49],29.3 µM
same,TGI,[50],> 100 µM
same,TGI,[51],> 100 µM
same,TGI,[52],> 100 µM
same,TGI,[53],67.3 µM
same,TGI,[54],> 100 µM
same,TGI,[55],> 100 µM
same,TGI,[56],> 100 µM
O=NN(CCCl)C(=O)NC1CCC(C(=O)O)CC1 (stereo unspecified),TGI,[1],> 100 µM
same,TGI,[57],> 100 µM
same,TGI,[2],> 100 µM
same,TGI,[3],> 100 µM
same,TGI,[4],> 100 µM
same,TGI,[5],> 100 µM
same,TGI,[6],> 100 µM
same,TGI,[7],17.5 µM and 33.8 µM
same,TGI,[8],> 100 µM
same,TGI,[9],> 100 µM
same,TGI,[10],> 100 µM
same,TGI,[11],> 100 µM
same,TGI,[12],> 100 µM
same,TGI,[13],> 100 µM
same,TGI,[14],> 100 µM
same,TGI,[15],> 100 µM
same,TGI,[16],> 100 µM
same,TGI,[17],> 100 µM
same,TGI,[18],> 100 µM
same,TGI,[19],> 80.9 µM
same,TGI,[58],> 100 µM
same,TGI,[20],> 100 µM
same,TGI,[21],> 100 µM
same,TGI,[22],> 100 µM
same,TGI,[23],> 100 µM
same,TGI,[24],> 100 µM
same,TGI,[25],> 100 µM
same,TGI,[26],> 100 µM
same,TGI,[27],> 100 µM
same,TGI,[28],> 100 µM
same,TGI,[29],> 100 µM
same,TGI,[30],16.2 µM and 19.2 µM
same,TGI,[31],> 100 µM
same,TGI,[32],> 100 µM and 49 µM
same,TGI,[33],> 100 µM
same,TGI,[34],> 100 µM
same,TGI,[35],> 100 µM
same,TGI,[36],> 100 µM
same,TGI,[37],> 100 µM
same,TGI,[38],> 100 µM
same,TGI,[39],> 100 µM
same,TGI,[40],> 100 µM
same,TGI,[41],> 100 µM
same,TGI,[42],75.1 µM and > 100 µM
same,TGI,[43],> 100 µM
same,TGI,[44],> 100 µM
same,TGI,[45],> 100 µM
same,TGI,[59],> 100 µM
same,TGI,[46],> 100 µM
same,TGI,[47],> 100 µM
same,TGI,[60],> 100 µM
same,TGI,[61],> 100 µM
same,TGI,[48],> 100 µM
same,TGI,[49],> 100 µM
same,TGI,[50],> 100 µM
same,TGI,[51],> 100 µM
same,TGI,[62],> 100 µM
same,TGI,[52],> 100 µM
same,TGI,[53],> 100 µM
same,TGI,[54],> 100 µM
same,TGI,[55],> 100 µM
same,TGI,[63],> 100 µM
same,TGI,[64],> 100 µM
same,TGI,[56],> 100 µM
C#CC[N+](CCO)(CCO)CCCCCCCCCCCCCCCCCC,TGI,[1],31 µM
same,TGI,[2],5.2 µM
same,TGI,[3],36.5 µM
same,TGI,[4],39.3 µM
same,TGI,[5],50.8 µM
same,TGI,[6],8.97 µM
same,TGI,[7],> 43.7 µM
same,TGI,[8],24.5 µM
same,TGI,[9],27.9 µM
same,TGI,[10],20.1 µM
same,TGI,[11],37.8 µM
same,TGI,[12],30 µM
same,TGI,[13],> 41.2 µM
same,TGI,[14],25.5 µM
same,TGI,[15],25 µM
same,TGI,[16],15 µM
same,TGI,[17],20.7 µM
same,TGI,[18],36.5 µM
same,TGI,[19],9.7 µM
same,TGI,[20],> 48.3 µM
same,TGI,[21],27.5 µM
same,TGI,[22],15.9 µM
same,TGI,[23],29.2 µM
same,TGI,[24],43.1 µM
same,TGI,[25],5.13 µM
same,TGI,[26],30.2 µM
same,TGI,[27],35.9 µM
same,TGI,[28],27.1 µM
same,TGI,[29],23.7 µM
same,TGI,[30],2.5 µM
same,TGI,[31],30.1 µM
same,TGI,[32],33 µM
same,TGI,[33],25.4 µM
same,TGI,[34],27.4 µM
same,TGI,[35],22.1 µM
same,TGI,[36],32.5 µM
same,TGI,[37],3.43 µM
same,TGI,[38],24.1 µM
same,TGI,[39],28.4 µM
same,TGI,[40],17.3 µM
same,TGI,[41],15.9 µM
same,TGI,[42],21.7 µM
same,TGI,[43],6.64 µM
same,TGI,[44],34.9 µM
same,TGI,[45],34.9 µM
same,TGI,[46],51.1 µM
same,TGI,[47],> 29 µM
same,TGI,[48],31.8 µM
same,TGI,[49],36.1 µM
same,TGI,[50],22.6 µM
same,TGI,[51],30.6 µM
same,TGI,[52],39.5 µM
same,TGI,[53],26.2 µM
same,TGI,[55],32.1 µM
same,TGI,[63],32.3 µM
same,TGI,[56],25.8 µM
